In PubChem BioAssay AID248 (DTP/NCI, 2004):
Where “and” joins values, the source holds several entries; their conditions need not be identical. Equal entries are not always repeated. Toxic doses and inconclusive results are not listed.

Tested on: L1210 leukemia ip in BDF1 mice, survival T/C
Test: NCI In Vivo Anticancer Drug Screen. Data for tumor model L1210 Leukemia (intraperitoneal) in B6D2F1 (BDF1) mice
Settings: endpoint: mean survival time, higher = longer survival
Summary of the method: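 In this screen, tumor-bearing mice given compound are compared to those given vehicle, and their survival values are reported as a treated-to-control quotient.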

[1] = dose: 100.0 mg/kg/injection, schedule: Q04DX003 (ip), vehicle: saline
[2] = dose: 200.0 mg/kg/injection, schedule: Q04DX003 (ip), vehicle: saline
[3] = dose: 50.0 mg/kg/injection, schedule: Q04DX003 (ip), vehicle: saline
[4] = dose: 100.0 mg/kg/injection, schedule: Q01DX001 (ip), vehicle: saline
[5] = dose: 200.0 mg/kg/injection, schedule: Q01DX001 (ip), vehicle: saline
[6] = dose: 400.0 mg/kg/injection, schedule: Q01DX001 (ip), vehicle: saline
[7] = dose: 100.0 mg/kg/injection, schedule: Q01DX009 (ip), vehicle: saline
[8] = dose: 200.0 mg/kg/injection, schedule: Q01DX009 (ip), vehicle: saline
[9] = dose: 400.0 mg/kg/injection, schedule: Q01DX009 (ip), vehicle: saline
[10] = dose: 25.0 mg/kg/injection, schedule: Q04DX003 (ip), vehicle: Klucel (hydroxypropylcellulose) (HPC)
[11] = dose: 50.0 mg/kg/injection, schedule: Q04DX003 (ip), vehicle: Klucel (hydroxypropylcellulose) (HPC)
[12] = dose: 100.0 mg/kg/injection, schedule: Q04DX003 (ip), vehicle: Klucel (hydroxypropylcellulose) (HPC)
[13] = dose: 100.0 mg/kg/injection, schedule: Q01DX009 (ip), vehicle: Klucel (hydroxypropylcellulose) (HPC)
[14] = dose: 200.0 mg/kg/injection, schedule: Q01DX009 (ip), vehicle: Klucel (hydroxypropylcellulose) (HPC)
[15] = dose: 200.0 mg/kg/injection, schedule: Q04DX003 (ip), vehicle: Klucel (hydroxypropylcellulose) (HPC)
[16] = dose: 400.0 mg/kg/injection, schedule: Q01DX009 (ip), vehicle: Klucel (hydroxypropylcellulose) (HPC)
[17] = dose: 400.0 mg/kg/injection, schedule: Q04DX003 (ip), vehicle: Klucel (hydroxypropylcellulose) (HPC)
[18] = dose: 100.0 mg/kg/injection, schedule: Q01DX001 (ip), vehicle: carboxymethylcellulose (CMC)

COC1OC2COC(c3ccccc3)OC2C(OC(=O)c2ccccc2)C1OC(=O)c1ccccc1 (stereo not given)
T/C (dose: 12.5 mg/kg/injection, schedule: Q04DX002 (ip), vehicle: Klucel (hydroxypropylcellulose) (HPC)): 104 % of control
T/C (dose: 25.0 mg/kg/injection, schedule: Q04DX002 (ip), vehicle: Klucel (hydroxypropylcellulose) (HPC)): 100 % of control
T/C (dose: 50.0 mg/kg/injection, schedule: Q04DX002 (ip), vehicle: Klucel (hydroxypropylcellulose) (HPC)): 98 % of control

CCN(CC)CCOC(=O)c1cccc2[nH]ccc12
T/C [1]: 104 % of control
T/C [2]: 109 % of control

CCOC(=O)CNC(=O)Nc1ccc(C(=O)O)cc1
T/C (dose: 100.0 mg/kg/injection, schedule: Q01DX009 (ip), vehicle: saline with Tween-80): 93 % of control
T/C (dose: 200.0 mg/kg/injection, schedule: Q01DX009 (ip), vehicle: saline with Tween-80): 100 % of control

Fc1cccc(CSC(=S)Nc2ccc(Cl)c(Cl)c2)c1
T/C (dose: 50.0 mg/kg/injection, schedule: Q04DX003 (ip), vehicle: saline with Tween-80): 101 % of control
T/C (dose: 100.0 mg/kg/injection, schedule: Q04DX003 (ip), vehicle: saline with Tween-80): 104 % of control

C[N+](C)(C)CCOC(=O)c1cc(CBr)cc(CBr)c1
T/C (dose: 25.0 mg/kg/injection, schedule: Q01DX009 (ip), vehicle: saline): 101 % of control
T/C (dose: 25.0 mg/kg/injection, schedule: Q04DX003 (ip), vehicle: saline): 98 % of control
T/C (dose: 50.0 mg/kg/injection, schedule: Q01DX009 (ip), vehicle: saline): 95 % of control
T/C [3]: 100 % of control
T/C [1]: 102 % of control

Cc1cccc2c(CCC(=O)O)c[nH]c12
T/C [4]: 100 % of control
T/C [5]: 94 % of control
T/C [6]: 94 % of control

Nc1nc(SSc2nc(N)nc3c2ncn3C2CC(O)C(CO)O2)c2ncn(C3CC(O)C(CO)O3)c2n1 (stereo not given)
T/C (dose: 1.0 mg/kg/injection, schedule: Q01DX009 (ip), vehicle: saline): 212 % of control
T/C (dose: 2.0 mg/kg/injection, schedule: Q01DX009 (ip), vehicle: saline): 223 % of control
T/C (dose: 75.0 mg/kg/injection, schedule: Q01DX001 (ip), vehicle: saline): 100 % of control
T/C (dose: 119.0 mg/kg/injection, schedule: Q01DX009 (ip), vehicle: saline): 118 % of control
T/C (dose: 178.0 mg/kg/injection, schedule: Q01DX009 (ip), vehicle: saline): 116 % of control
T/C (dose: 267.0 mg/kg/injection, schedule: Q01DX001 (ip), vehicle: saline): 168 % of control
T/C (dose: 267.0 mg/kg/injection, schedule: Q01DX009 (ip), vehicle: saline): 88 % of control
T/C [6]: 157 % of control and 178 % of control
T/C (dose: 600.0 mg/kg/injection, schedule: Q01DX001 (ip), vehicle: saline): 201 % of control
T/C (dose: 31.3 micrograms/kg/injection, schedule: Q01DX009 (ip), vehicle: saline): 96 % of control
T/C (dose: 62.5 micrograms/kg/injection, schedule: Q01DX009 (ip), vehicle: saline): 109 % of control
T/C (dose: 125.0 micrograms/kg/injection, schedule: Q01DX009 (ip), vehicle: saline): 112 % of control
T/C (dose: 250.0 micrograms/kg/injection, schedule: Q01DX009 (ip), vehicle: saline): 109 % of control

CCc1cccc(CC)c1NC(=O)Nc1ccc(Br)cc1
T/C [3]: 87 % of control
T/C [4]: 86 % of control
T/C [1]: 87 % of control
T/C [5]: 89 % of control
T/C [2]: 92 % of control

COc1ccc(C(=O)CCC(=O)O)c(C)c1
T/C [7]: 97 % of control
T/C [8]: 101 % of control
T/C [9]: 105 % of control

COC(=O)C1C2CC3c4[nH]c5cc(OC)ccc5c4CCN3CC2CC(OC2CCCCO2)C1OC (stereo not given)
T/C [10]: 98 % of control
T/C [11]: 100 % of control
T/C [12]: 117 % of control

Nc1ccccc1Oc1ccccc1
T/C [13]: 94 % of control
T/C [12]: 97 % of control
T/C [14]: 97 % of control
T/C [15]: 98 % of control
T/C [16]: 100 % of control
T/C [17]: 101 % of control

CC(C)OC(=O)CC#N
T/C [4]: 103 % of control
T/C [5]: 103 % of control
T/C [6]: 103 % of control

CC(=O)OC1C=CN(C(C)=O)C(SC(C)(C)C)C1OC(C)=O (stereo not given)
T/C [13]: 101 % of control
T/C [14]: 106 % of control
T/C [16]: 100 % of control

CCC(=O)OC1(c2ccccc2)CCN(CC2CC2)CC1C (stereo not given)
T/C (dose: 20.0 mg/kg/injection, schedule: Q04DX003 (ip), vehicle: saline): 105 % of control
T/C (dose: 40.0 mg/kg/injection, schedule: Q04DX003 (ip), vehicle: saline): 111 % of control
T/C (dose: 80.0 mg/kg/injection, schedule: Q04DX003 (ip), vehicle: saline): 91 % of control

S=c1cc[nH]c2[nH]ncc12
T/C (dose: 100.0 mg/kg/injection, schedule: Q04DX002 (ip), vehicle: DMSO): 94 % of control
T/C (dose: 200.0 mg/kg/injection, schedule: Q04DX002 (ip), vehicle: DMSO): 97 % of control

O=C(NCOC(c1ccccc1)c1ccccc1)c1cccnc1
T/C [1]: 89 % of control
T/C [2]: 86 % of control
T/C (dose: 400.0 mg/kg/injection, schedule: Q04DX003 (ip), vehicle: saline): 92 % of control

Nc1nc2c(c(=O)[nH]1)N=C(CCNc1ccc(C(=O)O)cc1)CN2
T/C [4]: 105 % of control
T/C [5]: 109 % of control
T/C [6]: 109 % of control

OCC1OC(CO)(c2ccccc2O)C(O)C1O (stereo not given) (tested in a mixture with another compound)
T/C [4]: 95 % of control
T/C [5]: 97 % of control
T/C [6]: 92 % of control

COC(=N)C/C=C/CC(=N)OC
T/C [7]: 94 % of control
T/C [8]: 94 % of control
T/C [9]: 92 % of control

Cc1ccc(NC(=O)c2ccc(Cl)cc2)c(C)c1
T/C [13]: 94 % of control
T/C [12]: 106 % of control
T/C [14]: 100 % of control
T/C [15]: 96 % of control
T/C [17]: 98 % of control

CC1Nc2ccccc2-c2ccccc2C1=O (stereo not given)
T/C [18]: 107 % of control
T/C (dose: 200.0 mg/kg/injection, schedule: Q01DX001 (ip), vehicle: carboxymethylcellulose (CMC)): 102 % of control
T/C (dose: 400.0 mg/kg/injection, schedule: Q01DX001 (ip), vehicle: carboxymethylcellulose (CMC)): 102 % of control

CC1CC([O-])=N/[N+]1=C/c1ccc(N(C)C)cc1 (stereo not given)
T/C (dose: 80.0 mg/kg/injection, schedule: Q01DX001 (ip), vehicle: saline with Tween-80): 98 % of control
T/C (dose: 160.0 mg/kg/injection, schedule: Q01DX001 (ip), vehicle: saline with Tween-80): 98 % of control
T/C (dose: 320.0 mg/kg/injection, schedule: Q01DX001 (ip), vehicle: saline with Tween-80): 92 % of control

O=[N+]([O-])c1ccc(N=C=S)cc1
T/C [10]: 95 % of control
T/C [11]: 95 % of control
T/C [12]: 93 % of control

O=[N+]([O-])c1ccc(C2SCSCS2)cc1
T/C [12]: 98 % of control
T/C [14]: 90 % of control
T/C [15]: 93 % of control
T/C [16]: 95 % of control
T/C [17]: 93 % of control

CC1C(C(=O)O)CC([N+](=O)[O-])C(Cl)C1[N+](=O)[O-] (stereo not given)
T/C (dose: 25.0 mg/kg/injection, schedule: Q01DX001 (ip), vehicle: carboxymethylcellulose (CMC)): 92 % of control
T/C (dose: 25.0 mg/kg/injection, schedule: Q04DX003 (ip), vehicle: carboxymethylcellulose (CMC)): 95 % of control
T/C (dose: 50.0 mg/kg/injection, schedule: Q01DX001 (ip), vehicle: carboxymethylcellulose (CMC)): 97 % of control
T/C (dose: 50.0 mg/kg/injection, schedule: Q01DX009 (ip), vehicle: carboxymethylcellulose (CMC)): 95 % of control and 102 % of control
T/C (dose: 50.0 mg/kg/injection, schedule: Q04DX003 (ip), vehicle: carboxymethylcellulose (CMC)): 98 % of control
T/C [18]: 102 % of control
T/C (dose: 100.0 mg/kg/injection, schedule: Q01DX009 (ip), vehicle: carboxymethylcellulose (CMC)): 90 % of control
T/C (dose: 100.0 mg/kg/injection, schedule: Q04DX002 (ip), vehicle: carboxymethylcellulose (CMC)): 101 % of control and 91 % of control
T/C (dose: 100.0 mg/kg/injection, schedule: Q04DX003 (ip), vehicle: carboxymethylcellulose (CMC)): 102 % of control
T/C (dose: 200.0 mg/kg/injection, schedule: Q04DX002 (ip), vehicle: carboxymethylcellulose (CMC)): 92 % of control and 105 % of control

O=C(Nc1ccccc1C(F)(F)F)c1ccc(Cl)cc1
T/C [13]: 97 % of control
T/C [12]: 93 % of control
T/C [14]: 103 % of control
T/C [15]: 99 % of control
T/C [16]: 94 % of control
T/C [17]: 88 % of control
